This is an account of results in US12049444B2, “Monomethyl fumarate precursor drug compounds and pharmaceutical compositions thereof” (AGATHONBIO CO., LTD., priority 2019, dated 2024).

Counter-ions that a name gives are not always drawn.

For series [1] the following is noted: cited from earlier work.
For series [2] the following is noted: rat, in vivo, po, 0.139 mmol/kg.
Procedure: The test compounds and control compounds were each prepared in the same way and administered at a dose of 0.139 mmol/kg to rats, and after blood was collected at a predetermined time, plasma was separated. Analysis of the drug was performed using HPLC (XBridge column C18, Waters, mobile phase 0.1% formic acid:acetonitrile (30:70, %/%)) and MS/MS (ESI positive, MRM). Each commercial standard solution was mixed with rat blank plasma at a ratio of 9:1 to prepare standard solutions and calibrate at concentrations of 5, 50, 100, 500, 100 and 5,000 ng/ml. In addition, the QC sample was prepared at 100, 750 and 2,500 ng/ml concentrations by mixing rat blank plasma and QC standard solution in a 9:1 ratio. […] And the concentration of the active ingredient in rat plasma, that is, monomethyl fumarate, was quantified by applying the previously verified assay. For pharmacokinetic parameters, WinNonlin 5.2 (Pharsight, USA) program was used, and AUC0-t, AUC0-∞, Cmax, Tmax, and t1/2 were calculated by noncompartment modeling (best fit). Pharmacokinetic parameter results were expressed as mean (Mean) and standard deviation (SD), and statistically processed using the SPSS program (Statistical Package for the Social Sciences, 10.0K, USA).

`COC(=O)/C=C/C(=O)OCCN1C(=O)CCC1=O` [ALKS8700, diroximel fumarate]: the “safety in phase 1 clinical trial” value in series [1] is recorded as “proven to be safe”.

With `CCN(CC)C(=O)COC(=O)/C=C/C(=O)OC` [Reference Example 1, 2-(diethylamino)-2-oxoethyl Methyl Fumarate], the AUC0-24 in series [2] is 8.28 µg·h/mL. Also, the “safety in phase 1 clinical trial” value in series [1] was “proven to be safe”.
